Experimental data published in US20260285855A1, “HETEROARYL DERIVATIVES AS DDRS INHIBITORS” (CHIESI FARMACEUTICI S.P.A., priority 2023, published 2026).

Key:
DDR1 = biological target: T1, DDR1 (Homo sapiens, UniProt Q08345); test: LanthaScreen Europium Kinase Binding assay, DDR1; settings: 5 nM DDR1, 20 nM Kinase Tracer 178, 1 h at rt; Ki from IC50 by Cheng-Prusoff; read-out: Ki DDR1
T1 construct: purchased Carna Biosciences
Protocol: (§1) DDR1 and DDR2 binding assays were performed using Life Technologies LanthaScreen™ Europium Kinase Binding assay. […] IC50 values were determined in GraphPad Prism 7.0 software, using 4 parameter model: log (inhibitor) vs. response. IC50 values were converted in Ki using the Cheng-Prusoff equation (Ki-IC50/(1+ [Tracer]/Kd).

DDR2 = biological target: T2, DDR2 (Homo sapiens, UniProt Q16832); test: LanthaScreen Europium Kinase Binding assay, DDR2; settings: 5 nM DDR2, 10 nM Kinase Tracer 178, 1 h at rt; Ki from IC50 by Cheng-Prusoff; read-out: Ki DDR2
T2 construct: purchased Life Technologies
T2 sequence (Q16832 22-855): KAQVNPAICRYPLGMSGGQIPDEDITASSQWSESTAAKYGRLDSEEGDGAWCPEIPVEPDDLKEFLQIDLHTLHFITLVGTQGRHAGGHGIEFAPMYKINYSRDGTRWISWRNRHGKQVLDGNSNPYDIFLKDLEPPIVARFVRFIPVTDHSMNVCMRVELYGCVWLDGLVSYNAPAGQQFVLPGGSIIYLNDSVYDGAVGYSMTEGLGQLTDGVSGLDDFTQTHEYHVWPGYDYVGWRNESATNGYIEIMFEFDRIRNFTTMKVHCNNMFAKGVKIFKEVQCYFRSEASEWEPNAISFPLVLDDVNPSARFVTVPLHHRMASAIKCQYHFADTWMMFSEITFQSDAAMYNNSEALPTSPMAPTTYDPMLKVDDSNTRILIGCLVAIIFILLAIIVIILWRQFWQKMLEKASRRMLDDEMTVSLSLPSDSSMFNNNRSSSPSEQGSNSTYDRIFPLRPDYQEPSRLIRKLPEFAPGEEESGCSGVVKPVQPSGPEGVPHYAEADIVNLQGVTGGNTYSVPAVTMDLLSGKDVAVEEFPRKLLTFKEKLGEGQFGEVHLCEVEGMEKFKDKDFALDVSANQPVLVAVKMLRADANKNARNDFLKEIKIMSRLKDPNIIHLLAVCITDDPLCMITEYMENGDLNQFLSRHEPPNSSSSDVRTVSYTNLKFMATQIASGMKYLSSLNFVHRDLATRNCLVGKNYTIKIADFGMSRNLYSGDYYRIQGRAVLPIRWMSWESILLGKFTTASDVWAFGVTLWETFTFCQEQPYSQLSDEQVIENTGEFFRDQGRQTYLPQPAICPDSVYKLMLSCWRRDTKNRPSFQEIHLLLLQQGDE
Protocol: as §1

T1 sequence (Q08345 19-913): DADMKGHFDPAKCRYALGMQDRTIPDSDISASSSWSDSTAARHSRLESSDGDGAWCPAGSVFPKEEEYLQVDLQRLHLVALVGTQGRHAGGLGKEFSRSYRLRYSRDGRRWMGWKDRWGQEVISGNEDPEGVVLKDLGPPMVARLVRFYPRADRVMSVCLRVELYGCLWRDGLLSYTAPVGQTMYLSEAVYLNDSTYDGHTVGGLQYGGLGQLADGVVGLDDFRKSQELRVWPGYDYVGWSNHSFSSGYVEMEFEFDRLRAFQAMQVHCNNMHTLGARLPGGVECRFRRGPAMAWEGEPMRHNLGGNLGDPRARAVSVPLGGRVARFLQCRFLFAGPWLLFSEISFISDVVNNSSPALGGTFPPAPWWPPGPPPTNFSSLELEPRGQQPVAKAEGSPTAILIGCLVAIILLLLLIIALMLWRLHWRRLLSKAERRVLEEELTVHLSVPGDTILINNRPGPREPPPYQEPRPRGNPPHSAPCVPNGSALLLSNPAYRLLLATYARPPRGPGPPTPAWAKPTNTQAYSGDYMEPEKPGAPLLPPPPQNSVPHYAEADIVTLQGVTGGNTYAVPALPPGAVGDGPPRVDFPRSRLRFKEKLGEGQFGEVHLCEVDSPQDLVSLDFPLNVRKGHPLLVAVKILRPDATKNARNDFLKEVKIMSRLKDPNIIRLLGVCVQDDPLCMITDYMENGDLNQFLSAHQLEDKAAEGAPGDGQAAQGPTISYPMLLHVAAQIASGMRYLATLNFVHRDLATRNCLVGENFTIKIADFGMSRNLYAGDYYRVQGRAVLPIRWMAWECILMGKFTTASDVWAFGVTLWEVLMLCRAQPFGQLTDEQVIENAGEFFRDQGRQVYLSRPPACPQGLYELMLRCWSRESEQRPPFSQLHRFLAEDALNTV

| SMILES | Ki (DDR1) | Ki (DDR2) |
| --- | --- | --- |
| COc1cccc(NC(=O)NC2CC3(C2)CN(C(=O)c2cnn4ccsc24)C3)c1 [Example 33, 1-(3-methoxyphenyl)-3-(2-(pyrazolo[5,1-b]thiazole-7-carbonyl)-2-azaspiro[3.3]heptan-6-yl)urea] | 5 to 25 nM | > 100 nM |
| CC(C)c1cncc(NC(=O)NC2CC3(C2)CN(C(=O)c2cnn4ccsc24)C3)c1 [Example 35, 1-(5-isopropylpyridin-3-yl)-3-(2-(pyrazolo[5,1-b]thiazole-7-carbonyl)-2-azaspiro[3.3]heptan-6-yl)urea] | < 5 nM | 5 to 25 nM |
| O=C(Nc1cc(CO)cc(C(F)(F)F)c1)NC1CC2(C1)CN(C(=O)c1cnn3ccsc13)C2 [Example 41, 1-(3-(hydroxymethyl)-5-(trifluoromethyl)phenyl)-3-(2-(pyrazolo[5,1-b]thiazole-7-carbonyl)-2-azaspiro[3.3]heptan-6-yl)urea] | < 5 nM | 5 to 25 nM |
| Cn1ccn2ncc(C(=O)N3CC4(CC(NC(=O)Nc5cccc(S(F)(F)(F)(F)F)c5)C4)C3)c12 [Example 42, 1-(2-(1-methyl-1H-imidazo[1,2-b]pyrazole-7-carbonyl)-2-azaspiro[3.3]heptan-6-yl)-3-(3-(pentafluoro-16-sulfaneyl)phenyl)urea] | < 5 nM | 5 to 25 nM |
| O=C(Nc1cccc(C(F)(F)F)c1)NC1CC2(C1)CN(C(=O)c1ccncc1)C2 [Example 44, 1-(2-isonicotinoyl-2-azaspiro[3.3]heptan-6-yl)-3-(3-(trifluoromethyl)phenyl)urea] | 25 to 100 nM | 25 to 100 nM |
| Cn1ccn2ncc(C(=O)N3CC4(CC(NC(=O)Nc5cc(C(F)(F)F)ccc5Cl)C4)C3)c12 [Example 45, 1-(2-chloro-5-(trifluoromethyl)phenyl)-3-(2-(1-methyl-1H-imidazo[1,2-b]pyrazole-7-carbonyl)-2-azaspiro[3.3]heptan-6-yl)urea] | < 5 nM | < 5 nM |
| O=C(Nc1cccc(C(F)(F)F)c1)NC1CC2(C1)CN(C(=O)c1ccnc3cc[nH]c13)C2 [Example 46, 1-(2-(1H-pyrrolo[3,2-b]pyridine-7-carbonyl)-2-azaspiro[3.3]heptan-6-yl)-3-(3-(trifluoromethyl)phenyl)urea] | < 5 nM | < 5 nM |
| COc1ccc(OC(F)(F)F)cc1NC(=O)NC1CC2(C1)CN(C(=O)c1ccnc3ccsc13)C2 [Example 48, 1-(2-methoxy-5-(trifluoromethoxy)phenyl)-3-(2-(thieno[3,2-b]pyridine-7-carbonyl)-2-azaspiro[3.3]heptan-6-yl)urea] | < 5 nM | 5 to 25 nM |
| CN(C(=O)Nc1cccc(CC(F)(F)F)c1)C1CC2(C1)CN(C(=O)c1cnn3ccn(C)c13)C2 [Example 50, 1-methyl-1-(2-(1-methyl-1H-imidazo[1,2-b]pyrazole-7-carbonyl)-2-azaspiro[3.3]heptan-6-yl)-3-(3-(2,2,2-trifluoroethyl)phenyl)urea] | < 5 nM | 5 to 25 nM |
| COc1ccc(OC(F)(F)F)cc1NC(=O)NC1CC2(C1)CN(C(=O)c1cnc3cnccn13)C2 [Example 57, 1-(2-(imidazo[1,2-a]pyrazine-3-carbonyl)-2-azaspiro[3.3]heptan-6-yl)-3-(2-methoxy-5-(trifluoromethoxy)phenyl)urea] | < 5 nM | 5 to 25 nM |

The next lines start with the values.

| Ki (DDR1) | Ki (DDR2) | SMILES |
| --- | --- | --- |
| < 5 nM | < 5 nM | Cn1ccn2ncc(C(=O)N3CC4(CC(NC(=O)Nc5cccc(CC(F)(F)F)c5)C4)C3)c12 [Example 34, 1-(2-(1-methyl-1H-imidazo[1,2-b]pyrazole-7-carbonyl)-2-azaspiro[3.3]heptan-6-yl)-3-(3-(2,2,2-trifluoroethyl)phenyl)urea] |
| < 5 nM | 5 to 25 nM | COc1ccc(OC(F)(F)F)cc1NC(=O)NC1CC2(C1)CN(C(=O)c1cnn3ccn(C)c13)C2 [Example 36, 1-(2-methoxy-5-(trifluoromethoxy)phenyl)-3-(2-(1-methyl-1H-imidazo[1,2-b]pyrazole-7-carbonyl)-2-azaspiro[3.3]heptan-6-yl)urea] |
| < 5 nM | 5 to 25 nM | Cn1ccn2ncc(C(=O)N3CC4(CC(NC(=O)Nc5cncc(C(F)(F)F)c5)C4)C3)c12 [Example 37, 1-(2-(1-methyl-1H-imidazo[1,2-b]pyrazole-7-carbonyl)-2-azaspiro [3.3]heptan-6-yl)-3-(5-(trifluoromethyl)pyridin-3-yl)urea] |
| < 5 nM | 5 to 25 nM | COc1ccc(Cl)cc1NC(=O)NC1CC2(C1)CN(C(=O)c1cnn3ccn(C)c13)C2 [Example 38, 1-(5-chloro-2-methoxyphenyl)-3-(2-(1-methyl-1H-imidazo[1,2-b]pyrazole-7-carbonyl)-2-azaspiro[3.3]heptan-6-yl)urea] |
| < 5 nM | < 5 nM | Cn1ccn2ncc(C(=O)N3CC4(CC(NC(=O)Nc5cc(C#N)cc(C(F)(F)F)c5)C4)C3)c12 [Example 39, 1-(3-cyano-5-(trifluoromethyl)phenyl)-3-(2-(1-methyl-1H-imidazo[1,2-b]pyrazole-7-carbonyl)-2-azaspiro[3.3]heptan-6-yl)urea] |
| < 5 nM | < 5 nM | O=C(Nc1cccc(C(F)(F)F)c1)NC1CC2(C1)CN(C(=O)c1cnn3ccccc13)C2 [Example 40, 1-(2-(pyrazolo[1,5-a]pyridine-3-carbonyl)-2-azaspiro[3.3]heptan-6-yl)-3-(3-(trifluoromethyl)phenyl)urea] |
| < 5 nM | 5 to 25 nM | Cc1ccc(-n2nc(C(C)(C)C)cc2NC(=O)NC2CC3(C2)CN(C(=O)c2cnn4ccn(C)c24)C3)cc1 [Example 43, 1-(3-(tert-butyl)-1-(p-tolyl)-1H-pyrazol-5-yl)-3-(2-(1-methyl-1H-imidazo[1,2-b]pyrazole-7-carbonyl)-2-azaspiro[3.3]heptan-6-yl)urea] |
| < 5 nM | 5 to 25 nM | CN(C(=O)Nc1cncc(C(F)(F)F)c1)C1CC2(C1)CN(C(=O)c1cnn3ccsc13)C2 [Example 47, 1-methyl-1-(2-(pyrazolo[5,1-b]thiazole-7-carbonyl)-2-azaspiro[3.3]heptan-6-yl)-3-(5-(trifluoromethyl)pyridin-3-yl)urea] |
| < 5 nM | < 5 nM | O=C(Nc1cncc(C(F)(F)F)c1)NC1CC2(C1)CN(C(=O)c1ccnc3ccsc13)C2 [Example 49, 1-(2-(thieno[3,2-b]pyridine-7-carbonyl)-2-azaspiro[3.3]heptan-6-yl)-3-(5-(trifluoromethyl)pyridin-3-yl)urea] |
| < 5 nM | 5 to 25 nM | Cn1ccn2ncc(C(=O)N3CC4(CC(NC(=O)Nc5cncc(OC(F)(F)F)c5)C4)C3)c12 [Example 51, 1-(2-(1-methyl-1H-imidazo[1,2-b]pyrazole-7-carbonyl)-2-azaspiro[3.3]heptan-6-yl)-3-(5-(trifluoromethoxy)pyridin-3-yl)urea] |
| < 5 nM | 5 to 25 nM | COc1ccc(OC(F)(F)F)cc1NC(=O)N(C)C1CC2(C1)CN(C(=O)c1cnn3ccn(C)c13)C2 [Example 52, 3-(2-methoxy-5-(trifluoromethoxy)phenyl)-1-methyl-1-(2-(1-methyl-1H-imidazo[1,2-b]pyrazole-7-carbonyl)-2-azaspiro[3.3]heptan-6-yl)urea] |
| < 5 nM | 5 to 25 nM | CN(C(=O)Nc1cc(C#N)cc(C(F)(F)F)c1)C1CC2(C1)CN(C(=O)c1cnn3ccn(C)c13)C2 [Example 53, 3-(3-cyano-5-(trifluoromethyl)phenyl)-1-methyl-1-(2-(1-methyl-1H-imidazo[1,2-b]pyrazole-7-carbonyl)-2-azaspiro[3.3]heptan-6-yl)urea] |
| < 5 nM | 5 to 25 nM | COc1ccc(OC(F)(F)F)cc1NC(=O)NC1CC2(C1)CN(C(=O)c1cnc3cccnn13)C2 [Example 54, 1-(2-(imidazo[1,2-b]pyridazine-3-carbonyl)-2-azaspiro[3.3]heptan-6-yl)-3-(2-methoxy-5-(trifluoromethoxy)phenyl)urea] |
| < 5 nM | 5 to 25 nM | COc1ccc(OC(F)(F)F)cc1NC(=O)NC1CC2(C1)CN(C(=O)c1cnn3cccnc13)C2 [Example 55, 1-(2-methoxy-5-(trifluoromethoxy)phenyl)-3-(2-(pyrazolo[1,5-a]pyrimidine-3-carbonyl)-2-azaspiro[3.3]heptan-6-yl)urea] |
| < 5 nM | 5 to 25 nM | Cn1ccn2ncc(C(=O)N3CC4(CC(NC(=O)Nc5cc(C(F)(F)F)ccc5OCCN5CCOCC5)C4)C3)c12 [Example 56, 1-(2-(1-methyl-1H-imidazo[1,2-b]pyrazole-7-carbonyl)-2-azaspiro[3.3]heptan-6-yl)-3-(2-(2-morpholinoethoxy)-5-(trifluoromethyl)phenyl)urea] |
